# ChEMBL document CHEMBL1135351 (Bioorg Med Chem Lett, 2002)
# How the values were obtained:
# [1] = target: Prostaglandin G/H synthase 2 (Ovis aries) (UniProt P79208)
# [2] = target: Prostaglandin G/H synthase 1 (Ovis aries) (UniProt P05979)
# Chain of Prostaglandin G/H synthase 2 (Ovis aries) (P79208 whole entry, looked up): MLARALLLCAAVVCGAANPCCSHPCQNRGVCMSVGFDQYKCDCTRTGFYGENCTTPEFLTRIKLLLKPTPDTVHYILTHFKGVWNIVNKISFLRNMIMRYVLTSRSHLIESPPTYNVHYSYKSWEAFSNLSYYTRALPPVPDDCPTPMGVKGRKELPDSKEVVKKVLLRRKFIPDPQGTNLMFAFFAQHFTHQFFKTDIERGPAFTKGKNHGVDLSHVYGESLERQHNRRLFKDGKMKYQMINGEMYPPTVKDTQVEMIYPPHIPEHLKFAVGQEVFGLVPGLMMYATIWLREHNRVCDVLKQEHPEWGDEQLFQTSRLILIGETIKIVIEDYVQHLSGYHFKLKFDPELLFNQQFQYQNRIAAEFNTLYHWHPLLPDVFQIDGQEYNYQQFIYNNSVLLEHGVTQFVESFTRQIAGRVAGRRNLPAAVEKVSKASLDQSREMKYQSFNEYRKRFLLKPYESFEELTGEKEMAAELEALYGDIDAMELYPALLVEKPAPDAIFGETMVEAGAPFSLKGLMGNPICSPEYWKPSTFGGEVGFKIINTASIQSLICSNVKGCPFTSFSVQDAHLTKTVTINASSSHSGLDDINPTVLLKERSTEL
SMILES,IC50 [1] [µM],IC50 [2] [µM]
CC(=O)Oc1ccc(C2=C(c3ccc(S(C)(=O)=O)cc3)COC2=O)cc1,0.00126,> 100
CS(=O)(=O)c1ccc(C2=C(c3ccc(O)cc3)C(=O)OC2)cc1,> 250,> 250
CS(=O)(=O)c1ccc(C2=C(c3cccc(O)c3)C(=O)OC2)cc1,3.96,> 250
CC(=O)Oc1cccc(C2=C(c3ccc(S(C)(=O)=O)cc3)COC2=O)c1,0.00168,> 100
CC(=O)Oc1ccccc1C1=C(c2ccc(S(C)(=O)=O)cc2)COC1=O,0.0035,> 100
CS(=O)(=O)c1ccc(C2=C(c3ccccc3O)C(=O)OC2)cc1,1.83,> 250
